Measurements taken from US10568344B2, “Methods of improving animal performance” (Novozymes A/S, priority 2015, dated 2020).
Marks after values point to notes of the source that are not given here.

What was measured:
[1] = In vivo broiler trial 1, growth performance; set-up: species or system male broiler chickens (ROSS PM3); conditions: for Improvement of FCR compared to the control diet / Improvement of weight gain compared to the control diet: 10 mg/kg; for FCR / FCR, Relative to C (%) / Feed intake / Feed intake, Relative to C (%) / Weight gain / Weight gain, Relative to C (%): 10 mg/kg feed
[2] = In vivo broiler trial 2, growth performance; set-up: species or system male broiler chickens; conditions: for FCR / FCR, Relative to C (%) / Feed intake / Feed intake, Relative to C (%) / Weight gain / Weight gain, Relative to C (%): 10 mg/kg feed; for Improvement of FCR compared to the control diet / Improvement of weight gain compared to the control diet: 10 mg/kg
Experimental: No additional enzymes (e.g. phytase) were added to the feed. The experimental diets (Starter and Grower) were based on soybean meal, wheat and rye (12%) as main ingredients (Table 6). The diets were formulated to contain 222 g crude protein and 12.5 MJ/kg MEN for the starter period and 204 g crude protein and 12.7 MJ/kg MEN for the grower period.

[3] = In vivo broiler trial 3, growth performance; set-up: species or system male broiler chickens; Motality: unit not given here
Experimental: The in vivo trial was carried out as described in example 7, except the feed was supplemented with the GH25 lysozyme (SEQ ID NO: 1) at 12.5 or 25 mg per kg feed, the GH24 lysozyme (SEQ ID NO: 4) at 12.5 or 25 mg per kg feed or with Avilamycin at an inclusion level of 10 mg/kg. No additional enzymes (e.g. phytase) were added to the feed. The experimental diets (Starter, Grower and Finisher) were based on soybean meal, wheat and rye (12%) as main ingredients (Table 8). The diets were formulated to contain 225 g crude protein and 12.5 MJ/kg MEN for the starter period, 215 g crude protein and 12.8 MJ/kg MEN for the grower period and 205 g crude protein and 13.0 MJ/kg MEN for the finisher period.

[4] = In vivo piglet trial, growth performance; set-up: species or system weaned piglets
Experimental: The trial was performed from Oct. 23 to Dec. 4, 2014 at the Research Center for Animal Nutrition (DSM Nutritional Products France, F-68305 Village-Neuf) according to the official French guidelines for experiments with live animals. One hundred and four castrated male crossbred (Large-White (female)×Redon (male)) weaned piglets having 28 days of age supplied by the commercial farm “[…] du Rhin” located in Balgau (France), were used in a 42-day experiment. The initial bodyweight of the piglets was 7.88±0.675 kg. They were sorted by body weight into 32 groups of 3 or 4 piglets and randomly allotted to each dietary treatment. Each group of animals was placed in one flat-deck cages and allocated to one of the different treatments. Each treatment was replicated with 8 cages using a total of 26 animals (6 cages of 3 animals/treatment and 2 cages of 4 animals/treatment) per treatment. […] Animals were housed in an environmentally controlled room. Room temperature was initially 27° C. and was lowered weekly by about 2° C. until 21-22° C. and relative humidity percentage was 50%. The experimental diets (Pre-Starter and Starter) were fed ad libitum in two feeding phases from day 0 to 14 (phase 1, Pre-starter) and day 14 to 42 (phase 2, Starter). The ingredient composition and the calculated nutrient levels of the experimental diets for phases 1 and 2 are presented in table 11. Both diets were formulated to meet the animals' requirements according NRC (2012) and were fed in pelleted form. Pelleting conditions were at 70° C. for 30 seconds. […] No additional enzymes (e.g. phytase) were added to the feed. […] Appropriate amount of the liquid preparations of lysozyme was diluted in water and sprayed onto the respective pelleted feed to get the final concentrations in the feed corresponding to the different treatments. For procedural balance of all treatments the same volume of water were also sprayed onto the pellets of the control diets. Body weight of the individual animals and feed consumption per pen were recorded on days 14 and 42 of the study. […] The experimental unit was the piglet, except for ADFI and FCR which were measured by cage, and in both cases, treatment was used as class variable. One-factorial ANOVA and Student-Newman-Keuls test was used to assess differences among means in treatment groups.

[5] = Finisher (d 36-42), 10 mg/kg feed
[6] = Grower (d 22-36), 10 mg/kg feed
[7] = Starter (d 1-22), 10 mg/kg feed
[8] = Whole period (d 1-42), 10 mg/kg feed

## COC[C@H]1O[C@@H](OC2OC[C@@H]3O[C@]4(O[C@H]3[C@H]2OC(=O)C(C)C)O[C@H](C)[C@@](O)(C(C)=O)[C@@H]2OCO[C@H]24)[C@@H](OC)[C@@H](O)[C@@H]1O[C@@H]1O[C@H](C)[C@H](OC)[C@H](O[C@H]2C[C@@]3(C)OC4(C[C@@H](O)[C@H](O[C@H]5C[C@@H](O)[C@H](OC(=O)c6c(C)c(Cl)c(O)c(Cl)c6OC)[C@@H](C)O5)[C@@H](C)O4)O[C@@H]3[C@@H](C)O2)[C@H]1O (stereo partly drawn) [Avilamycin, reference compound]
[1]
  Improvement of FCR compared to the control diet: 2.3%
[1]; Grower (d 22-36)
  FCR: 1.694^abc
  FCR, Relative to C (%): 97.7%
  Feed intake: 2976^ab g/b
  Feed intake, Relative to C (%): 97.6%
  Weight gain: 1757 g/b
  Weight gain, Relative to C (%): 99.8%
[1]; Starter (d 1-22)
  FCR: 1.695^c
  FCR, Relative to C (%): 93.3%
  Feed intake: 1943 g/b
  Feed intake, Relative to C (%): 97.4%
  Weight gain: 1147 g/b
  Weight gain, Relative to C (%): 104.1%
[1]; Whole period (d 1-36)
  FCR: 1.694^bc
  FCR, Relative to C (%): 96%
  Feed intake: 4918^ab g/b
  Feed intake, Relative to C (%): 97.5%
  Weight gain: 2903 g/b
  Weight gain, Relative to C (%): 101.5%
[1]; day 1 to day 36
  Improvement of FCR compared to the control diet: 4%
  Improvement of weight gain compared to the control diet: 1.5%
[1]; starter period
  Improvement of weight gain compared to the control diet: 4.1%
[2]; Grower (d 22-36)
  FCR: 1.621^b
  FCR, Relative to C (%): 94.2%
  Feed intake: 2599 g/b
  Feed intake, Relative to C (%): 95.2%
  Weight gain: 1605 g/b
  Weight gain, Relative to C (%): 101.2%
[2]; Starter (d 1-22)
  FCR: 1.421^a
  FCR, Relative to C (%): 103%
  Feed intake: 1517^a g/b
  Feed intake, Relative to C (%): 103.1%
  Weight gain: 1070 g/b
  Weight gain, Relative to C (%): 100.2%
[2]; Whole period (d 1-36)
  FCR: 1.537^c
  FCR, Relative to C (%): 97.4%
  Feed intake: 4111 g/b
  Feed intake, Relative to C (%): 98.1%
  Weight gain: 2675 g/b
  Weight gain, Relative to C (%): 100.8%
[2]; day 1 to day 36
  Improvement of FCR compared to the control diet: 2.6%
[2]; grower period
  Improvement of FCR compared to the control diet: 5.8%
  Improvement of weight gain compared to the control diet: 1.2%
[2]; starter period
  Improvement of FCR compared to the control diet: No improvement
  Improvement of weight gain compared to the control diet: No improvement
[3]; [5]
  FCR: 1.982
  FCR, Relative to C (%): 101.1%
  Feed intake: 1460 g/b
  Feed intake, Relative to C (%): 98.2%
  Weight gain: 738 g/b
  Weight gain, Relative to C (%): 97.0%
[3]; [6]
  FCR: 1.683
  FCR, Relative to C (%): 97.7%
  Feed intake: 2242 g/b
  Feed intake, Relative to C (%): 98.1%
  Weight gain: 1334 g/b
  Weight gain, Relative to C (%): 100.4%
[3]; [7]
  FCR: 1.452
  FCR, Relative to C (%): 100.8%
  Feed intake: 1593 g/b
  Feed intake, Relative to C (%): 101.0%
  Weight gain: 1102 g/b
  Weight gain, Relative to C (%): 100.6%
[3]; [8]
  EPEF: 397
  EPEF, Relative to C (%): 95.0%
  FCR: 1.669
  FCR, Relative to C (%): 99.3%
  Feed intake: 5312 g/b
  Feed intake, Relative to C (%): 99.3%
  Motality: 12.5
  Weight gain: 3184 g/b
  Weight gain, Relative to C (%): 99.9%
[3]; whole period, 10 mg/kg
  EPEF worse than NC diet by: 5.0%
  FCR improvement compared to NC diet: 0.7%

## O=C(O)c1ccccc1 [VevoVital, benzoic acid]
[4]; day 0-14, 5000 mg/kg feed
  ADFI, % relative NC: 98.6%
  ADFI, Mean: 355 g/day
  ADWG, % relative NC: 104.8%
  ADWG, Mean: 304 g/day
  FCR, % relative NC: 94.2%
  FCR, Mean: 1.168^a
[4]; day 0-42, 5000 mg/kg feed
  ADFI, % relative NC: 96.6%
  ADFI, Mean: 709^ab g/d
  ADWG, % relative NC: 105.4%
  ADWG, Mean: 526 g/day
  EPEF, % relative NC: 116.2%
  EPEF, Mean: 394
  FCR, % relative NC: 90.4%
  FCR, Mean: 1.342^a
[4]; day 14-42, 5000 mg/kg feed
  ADFI, % relative NC: 95.3%
  ADFI, Mean: 886^ab g/d
  ADWG, % relative NC: 105.8%
  ADWG, Mean: 638 g/day
  FCR, % relative NC: 90.5%
  FCR, Mean: 1.398^a
[4]; overall period (day 0 to day 42), 5000 mg/kg
  Improvement on FCR compared to the negative control: 9.6%
[4]; pre-starter period, 5000 mg/kg
  Improvement of ADWG compared to NC: 4.8%
[4]; starter period, day 15 to day 42, 5000 mg/kg
  Improvement to FCR compared to NC: 9.5%
[4]; starter period, 5000 mg/kg
  Improvement of ADWG compared to NC: 5.8%
[4]; whole period, 5000 mg/kg
  Improvement of ADWG compared to NC: 5.4%
